In the supplement of paper PMC4649846:

How the values were obtained:
MDA-MB-231 [1] = experiment: drug sensitivity score (DSS); higher = more sensitive; extreme values may be limits of the assay; details: incubation time: 72 h
Description: (§1)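 MDA-MB-231 breast cancer cells were transfected with siBRCA1 or non-targeting siControl, then seeded 24 h later at 4000 cells/well in 384-well plates holding 198 drugs at 5 concentrations. Viability was read by CellTiter-Blue after 72 h at 37 °C. Dose-response curves were fitted in Dotmatics to give IC50 and a drug sensitivity score (DSS: area under the curve relative to the area between the 10% threshold and 100% inhibition, normalised by the log of the top response). The dose range is not stated. IC50 values of 8333.3 or 4166.7 nM mark no response (top dose), and 0.8333 nM is the lower limit.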

MDA-MB-231 [2] = details: incubation time: 72 h
Description: as §1

[3] = siRNA: siControl (non-targeting)

Compound | drug sensitivity score (MDA-MB-231 [1]; siRNA: siBRCA1) | drug sensitivity score (MDA-MB-231 [1]; [3]) | IC50 of cell viability (MDA-MB-231 [2]; siRNA: siBRCA1) | IC50 of cell viability (MDA-MB-231 [2]; [3])
O=C(Nc1ccncc1)C(=O)c1cn(Cc2ccc(Cl)cc2)c2ccccc12 [Indibulin] | 7.58 | 7.93 | 753 nM | 632 nM
C1CN1c1nc(N2CC2)nc(N2CC2)n1 [Triethylenemelamine] | 0 | 0 | > 4170 nM | > 4170 nM
O=P1(NCCCl)OCCCN1CCCl (configuration not stated) [Ifosfamide] | 0 | 0 | > 4170 nM | > 4170 nM
C[C@]12O[C@H](C[C@]1(O)CO)n1c3ccccc3c3c4c(c5c6ccccc6n2c5c31)CNC4=O [Lestaurtinib] | 8.59 | 11.3 | 1400 nM | 794 nM
c1ccc([C@H]2CN3CCSC3=N2)cc1 [Levamisole] | 0.142 | 0 | 3160 nM | > 4170 nM
Cn1c(=O)n(-c2ccc(C(C)(C)C#N)cc2)c2c3cc(-c4cnc5ccccc5c4)ccc3ncc21 [NVP-BEZ235 (Dactolisib)] | 16.9 | 16.6 | 8.83 nM | 10.2 nM
O=C(/C=C/c1cccc(S(=O)(=O)Nc2ccccc2)c1)NO [Belinostat] | 12.2 | 12.9 | 757 nM | 668 nM
C[C@]1(c2nc3c(C(N)=O)cccc3[nH]2)CCCN1 [Veliparib] | 0 | 0 | > 4170 nM | > 4170 nM
COc1cc2c(Oc3ccc4[nH]c(C)cc4c3F)ncnc2cc1OCCCN1CCCC1 [Cediranib] | 0.0221 | 0 | > 4170 nM | > 4170 nM
COc1nc(N)nc2c1ncn2[C@@H]1O[C@H](CO)[C@@H](O)[C@@H]1O [Nelarabine] | 0 | 0 | > 4170 nM | > 4170 nM
Nc1ncn([C@@H]2O[C@H](CO)[C@@H](O)[C@H]2O)c(=O)n1 [Azacitidine] | 0 | 0 | > 4170 nM | > 4170 nM
COc1cc([C@@H]2c3cc4c(cc3[C@@H](O[C@@H]3O[C@@H]5CO[C@@H](C)O[C@H]5[C@H](O)[C@H]3O)[C@H]3COC(=O)[C@H]23)OCO4)cc(OC)c1O [Etoposide] | 10 | 2.9 | 91.9 nM | > 4170 nM
CC1(C)CCC(c2ccc(Cl)cc2)=C(CN2CCN(c3ccc(C(=O)NS(=O)(=O)c4ccc(N[C@H](CCN5CCOCC5)CSc5ccccc5)c(S(=O)(=O)C(F)(F)F)c4)cc3)CC2)C1 [Navitoclax] | 11 | 10.3 | 835 nM | 821 nM
Cn1cnc2c(F)c(Nc3ccc(Br)cc3Cl)c(C(=O)NOCCO)cc21 [Selumetinib] | 10.3 | 10.7 | 610 nM | 297 nM
Cc1c(C(=O)Nc2ccc(N3C[C@@H](C)O[C@@H](C)C3)nc2)cccc1-c1ccc(OC(F)(F)F)cc1 [NVP-LDE225] | 0 | 0 | > 4170 nM | > 4170 nM
CC(=O)[C@]1(O)Cc2c(O)c3c(c(O)c2[C@@H](O[C@H]2C[C@H](N)[C@H](O)[C@H](C)O2)C1)C(=O)c1ccccc1C3=O [Idarubicin] | 22 | 21 | 91.4 nM | 115 nM
CO[C@H]1/C=C\C=C(/C)C(=O)NC2=CC(=O)C(NCCN(C)C)=C(C[C@@H](C)C[C@H](OC)[C@H](O)[C@@H](C)/C=C(\C)[C@@H]1OC(N)=O)C2=O [Alvespimycin] | 20 | 22.7 | 128 nM | 75.7 nM
COc1cc(F)c(F)c(Nc2ccc(I)cc2F)c1NS(=O)(=O)C1(C[C@H](O)CO)CC1 [RDEA119 (Refametinib)] | 14.9 | 12.3 | 92.2 nM | 146 nM
CO[C@H](C(=O)[C@@H](O)[C@@H](C)O)[C@@H]1Cc2cc3cc(O[C@H]4C[C@@H](O[C@@H]5C[C@@H](O)[C@H](O)[C@@H](C)O5)[C@H](O)[C@@H](C)O4)c(C)c(O)c3c(O)c2C(=O)[C@H]1O[C@H]1C[C@@H](O[C@@H]2C[C@@H](O)[C@@H](O[C@@H]3C[C@](C)(O)[C@H](O)[C@@H](C)O3)[C@@H](C)O2)[C@H](O)[C@@H](C)O1 [Plicamycin] | 23.4 | 24.2 | 67.9 nM | 56 nM

Compound | drug sensitivity score (MDA-MB-231 [1]; siRNA: siBRCA1) | drug sensitivity score (MDA-MB-231 [1]; [3]) | IC50 of cell viability (MDA-MB-231 [2]; siRNA: siBRCA1) | IC50 of cell viability (MDA-MB-231 [2]; [3])
O=NN(CCCl)C(=O)NC1CCCCC1 [Lomustine] | 0 | 0 | > 4170 nM | > 4170 nM
O=C1c2c(O)ccc(O)c2C(=O)c2c(NCCNCCO)ccc(NCCNCCO)c21 [Mitoxantrone] | 19.5 | 19.9 | 143 nM | 134 nM
CN1CCC(COc2cnc(-c3cccc(Cn4nc(-c5cccc(C#N)c5)ccc4=O)c3)nc2)CC1 | 3.92 | 3.58 | 3770 nM | 4020 nM
NC1(c2ccc(-c3nc4ccn5c(=O)[nH]nc5c4cc3-c3ccccc3)cc2)CCC1 [MK-2206] | 0 | 0 | > 4170 nM | > 4170 nM
Cn1cc(C2=C(c3cn(C4CCN(Cc5ccccn5)CC4)c4ccccc34)C(=O)NC2=O)c2ccccc21 [Enzastaurin] | 0 | 0 | > 4170 nM | > 4170 nM
COc1ccc(-c2ccc3c(N4CCOC[C@@H]4C)nc(N4CCOC[C@@H]4C)nc3n2)cc1CO [AZD8055] | 19.1 | 18.2 | 45.9 nM | 88.8 nM
Cc1ccc(C(=O)Nc2ccc(CN3CCN(C)CC3)c(C(F)(F)F)c2)cc1C#Cc1cnc2cccnn12 [Ponatinib] | 16 | 15.4 | 297 nM | 363 nM
Cn1cncc1[C@@](N)(c1ccc(Cl)cc1)c1ccc2c(c1)c(-c1cccc(Cl)c1)cc(=O)n2C [Tipifarnib] | 12.8 | 14.1 | 79.4 nM | 30.5 nM
O=C(c1cc(Cc2n[nH]c(=O)c3ccccc23)ccc1F)N1CCN(C(=O)C2CC2)CC1 [Olaparib] | 0 | 0 | > 4170 nM | > 4170 nM
CC[C@H](CO)Nc1nc(NCc2ccccc2)c2ncn(C(C)C)c2n1 [Roscovitine] | 2.37 | 0 | > 4170 nM | > 4170 nM
CN[C@@H]1C[C@H]2O[C@@](C)([C@@H]1OC)n1c3ccccc3c3c4c(c5c6ccccc6n2c5c31)C(=O)N[C@H]4O [UCN-01] | 23.4 | 27.8 | 66.8 nM | 28.9 nM
CO[C@H]1C[C@@H]2CC[C@@H](C)[C@@](O)(O2)C(=O)C(=O)N2CCCC[C@H]2C(=O)O[C@H]([C@H](C)C[C@@H]2CC[C@@H](O)[C@H](OC)C2)CC(=O)[C@H](C)/C=C(\C)[C@@H](O)[C@@H](OC)C(=O)[C@H](C)C[C@H](C)/C=C/C=C/C=C/1C [Rapamycin (Sirolimus)] | 15.5 | 15.3 | 0.904 nM | < 0.833 nM
S=c1[nH]cnc2nc[nH]c12 [Mercaptopurine] | 0 | 4.58 | > 4170 nM | 991 nM
CNNCc1ccc(C(=O)NC(C)C)cc1 [Procarbazine] | 0 | 0 | > 4170 nM | > 4170 nM
Nc1ncn([C@H]2C[C@H](O)[C@@H](CO)O2)c(=O)n1 [Decitabine] |  | 0 | > 4170 nM | > 4170 nM
O=P1(N(CCCl)CCCl)NCCCO1 (configuration not stated) [Cyclophosphamide] | 0.0343 | 0 | > 4170 nM | > 4170 nM
CCC1=C[C@@H]2CN(C1)Cc1c([nH]c3ccccc13)[C@@](C(=O)OC)(c1cc3c(cc1OC)N(C)[C@H]1[C@@](O)(C(=O)OC)[C@H](OC(C)=O)[C@]4(CC)C=CCN5CC[C@]31[C@@H]54)C2 [Vinorelbine] | 23.5 | 24 | 31 nM | 23.6 nM
O=C1CCC(N2C(=O)c3ccccc3C2=O)C(=O)N1 (configuration not stated) [Thalidomide] | 0 | 0 | > 4170 nM | > 4170 nM
